Source: PMC6979384, “Characterization of the plant homeodomain (PHD) reader family for their histone tail interactions” (Epigenetics & Chromatin, 2020)
Where no end group is shown, it is not given here. [ ]: non-standard residue; d: D form. Lys(Me2) = CN(C)CCCC[C@H](N)C(=O)O

Legend:
Assay in all cases: Histone peptide microarray
Format in all cases: binding, human
[1] = tested on: AIRE (PP); conditions: histone peptide array, GST-tagged reader; arrays performed twice, n of 4
Summary of the method: (§1)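 Recombinant GST-PHD protein at 0.5 μM; 293-member modified histone peptide array; signals averaged from four repeats ± SD.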

[2] = tested on: BAZ2B; conditions: histone peptide array, GST-tagged reader; arrays performed twice, n of 4
Summary of the method: as §1

[3] = tested on: BPTF (PB); conditions: histone peptide array, GST-tagged reader; PB = PHD + Bromodomain; arrays performed twice, n of 4
Summary of the method: as §1

[4] = tested on: CHD4 (PPCC); conditions: histone peptide array, GST-tagged reader; PPCC = Dual PHD + Dual Chromodomain; arrays performed twice, n of 4
Summary of the method: as §1

[5] = tested on: CHD5 (PCC); conditions: histone peptide array, GST-tagged reader; PCC = PHD + Dual Chromodomain; arrays performed twice, n of 4
Summary of the method: as §1

[6] = tested on: CHD5 (PPCC); conditions: histone peptide array, GST-tagged reader; PPCC = Dual PHD + Dual Chromodomain; arrays performed twice, n of 4
Summary of the method: as §1

[7] = tested on: DIDO1; conditions: histone peptide array, GST-tagged reader; arrays performed twice, n of 4
Summary of the method: as §1

[8] = tested on: DPF2 (PPC2W2); conditions: histone peptide array, GST-tagged reader; PPC2W2 = Dual PHD + C2W2-type Zn-finger; arrays performed twice, n of 4
Summary of the method: as §1

[9] = tested on: ING1; conditions: histone peptide array, GST-tagged reader; arrays performed twice, n of 4
Summary of the method: as §1

[10] = tested on: ING2; conditions: histone peptide array, GST-tagged reader; arrays performed twice, n of 4
Summary of the method: as §1

[11] = tested on: ING3; conditions: histone peptide array, GST-tagged reader; arrays performed twice, n of 4
Summary of the method: as §1

[12] = tested on: ING4; conditions: histone peptide array, GST-tagged reader; arrays performed twice, n of 4
Summary of the method: as §1

[13] = tested on: ING5; conditions: histone peptide array, GST-tagged reader; arrays performed twice, n of 4
Summary of the method: as §1

[14] = tested on: KDM4C (TTP); conditions: histone peptide array, GST-tagged reader; TTP = Tandem Tudor domain + PHD; arrays performed twice, n of 4
Summary of the method: as §1

[15] = tested on: KDM5A (1); conditions: histone peptide array, GST-tagged reader; arrays performed twice, n of 4
Summary of the method: as §1

[16] = tested on: KDM5A (3); conditions: histone peptide array, GST-tagged reader; arrays performed twice, n of 4
Summary of the method: as §1

[17] = tested on: KDM5B (1); conditions: histone peptide array, GST-tagged reader; arrays performed twice, n of 4
Summary of the method: as §1

[18] = tested on: KDM5B (3); conditions: histone peptide array, GST-tagged reader; arrays performed twice, n of 4
Summary of the method: as §1

[19] = tested on: KDM7A; conditions: histone peptide array, GST-tagged reader; arrays performed twice, n of 4
Summary of the method: as §1

[20] = tested on: MLL5; conditions: histone peptide array, GST-tagged reader; arrays performed twice, n of 4
Summary of the method: as §1

[21] = tested on: MORC3 (CW); conditions: histone peptide array, GST-tagged reader; CW = CW-type Zn-finger; arrays performed twice, n of 4
Summary of the method: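 GST-tagged PHD finger readers were expressed, purified and applied at 0.5 μM to a microarray of 293 synthetic histone peptides carrying single or combinatorial PTMs, using an optimized protocol. Binding signals are averages with standard deviation from 4 replicates.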

[22] = tested on: PHF13; conditions: histone peptide array, GST-tagged reader; arrays performed twice, n of 4
Summary of the method: as §1

[23] = tested on: PHF21A; conditions: histone peptide array, GST-tagged reader; arrays performed twice, n of 4
Summary of the method: as §1

[24] = tested on: PHF23; conditions: histone peptide array, GST-tagged reader; arrays performed twice, n of 4
Summary of the method: as §1

[25] = tested on: PHF2; conditions: histone peptide array, GST-tagged reader; arrays performed twice, n of 4
Summary of the method: as §1

[26] = tested on: PHF8; conditions: histone peptide array, GST-tagged reader; arrays performed twice, n of 4
Summary of the method: as §1

[27] = tested on: PHRF1 (RP); conditions: histone peptide array, GST-tagged reader; arrays performed twice, n of 4
Summary of the method: as §1

[28] = tested on: RAG2; conditions: histone peptide array, GST-tagged reader; arrays performed twice, n of 4
Summary of the method: as §1

[29] = tested on: SP140L; conditions: histone peptide array, GST-tagged reader; arrays performed twice, n of 4
Summary of the method: as §1

[30] = tested on: TAF3; conditions: histone peptide array, GST-tagged reader; arrays performed twice, n of 4
Summary of the method: as §1

[31] = tested on: TRIM66 (PB); conditions: histone peptide array, GST-tagged reader; PB = PHD + Bromodomain; arrays performed twice, n of 4
Summary of the method: as §1

H3.3K36me2 (27-45): H3.3 27-45 (KSAPSTGGV[Lys(Me2)]KPHRYRPGT; UniProt P84243 28-46, looked up, fragment)
Array Heatmap signal, AIRE (PP) [1]: 0.4867 | Array Heatmap signal, BAZ2B [2]: 0.4965 | Array Heatmap signal, BPTF (PB) [3]: 0.3735 | Array Heatmap signal, CHD4 (PPCC) [4]: 0.5698 | Array Heatmap signal, CHD5 (PCC) [5]: 0.8212 | Array Heatmap signal, CHD5 (PPCC) [6]: 0.6024 | Array Heatmap signal, DIDO1 [7]: 0.7878 | Array Heatmap signal, DPF2 (PPC2W2) [8]: 0.6778 | Array Heatmap signal, ING1 [9]: 0.5396 | Array Heatmap signal, ING2 [10]: 0.5971 | Array Heatmap signal, ING3 [11]: 0.5215 | Array Heatmap signal, ING4 [12]: 0.4773 | Array Heatmap signal, ING5 [13]: 0.3908 | Array Heatmap signal, KDM4C (TTP) [14]: 0.5418 | Array Heatmap signal, KDM5A (1) [15]: 0.505 | Array Heatmap signal, KDM5A (3) [16]: 0.4963 | Array Heatmap signal, KDM5B (1) [17]: 0.6701 | Array Heatmap signal, KDM5B (3) [18]: 0.5383 | Array Heatmap signal, KDM7A [19]: 0.3737 | Array Heatmap signal, MLL5 [20]: 0.5651 | Array Heatmap signal, MORC3 (CW) [21]: 0.4027 | Array Heatmap signal, PHF13 [22]: 0.6587 | Array Heatmap signal, PHF21A [23]: 0.4763 | Array Heatmap signal, PHF23 [24]: 0.5877 | Array Heatmap signal, PHF2 [25]: 0.5053 | Array Heatmap signal, PHF8 [26]: 0.3824 | Array Heatmap signal, PHRF1 (RP) [27]: 0.4622 | Array Heatmap signal, RAG2 [28]: 0.3087 | Array Heatmap signal, SP140L [29]: 0.3879 | Array Heatmap signal, TAF3 [30]: 0.2867 | Array Heatmap signal, TRIM66 (PB) [31]: 0.6104
